Series [1] deals with T1, D-sorbitol dehydrogenase (SLDH) (Gluconobacter thailandicus, UniProt Q8KIL1).
T1 sequence (Q8KIL1 30-740): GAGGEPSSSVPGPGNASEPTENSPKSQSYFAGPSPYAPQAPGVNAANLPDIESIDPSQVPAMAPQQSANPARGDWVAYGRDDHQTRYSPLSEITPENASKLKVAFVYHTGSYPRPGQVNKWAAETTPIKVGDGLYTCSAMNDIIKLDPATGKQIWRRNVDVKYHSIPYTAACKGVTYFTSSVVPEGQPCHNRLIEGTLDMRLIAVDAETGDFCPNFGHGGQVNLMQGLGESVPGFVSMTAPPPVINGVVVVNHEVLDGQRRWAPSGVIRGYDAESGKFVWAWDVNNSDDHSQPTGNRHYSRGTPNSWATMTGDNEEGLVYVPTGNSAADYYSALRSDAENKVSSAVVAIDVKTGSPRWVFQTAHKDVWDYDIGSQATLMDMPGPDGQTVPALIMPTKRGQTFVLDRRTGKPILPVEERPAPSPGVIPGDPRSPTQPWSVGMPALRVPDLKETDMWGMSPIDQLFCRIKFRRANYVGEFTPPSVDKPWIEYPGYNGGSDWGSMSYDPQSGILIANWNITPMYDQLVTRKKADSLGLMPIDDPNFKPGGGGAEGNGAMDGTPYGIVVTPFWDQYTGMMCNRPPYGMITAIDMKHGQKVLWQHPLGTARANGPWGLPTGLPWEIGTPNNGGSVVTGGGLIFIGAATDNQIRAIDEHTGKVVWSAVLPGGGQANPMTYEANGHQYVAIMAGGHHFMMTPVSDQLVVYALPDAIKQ
In words: Effects of metal ions and inhibitors on the SLDH activity. The series is classed as biochemical, Gluconobacter suboxydans IFO 3255. The arrangement: The SLDH was isolated from the membrane fraction of Gluconobacter suboxydans IFO 3255 (DSM 9715); made in house; host or cells: Gluconobacter suboxydans IFO 3255 (DSM 9715), native source (not recombinant): purified from the solubilized membrane fraction. To be noted: for effect on SLDH activity: addition of 0.91 mM; for activity at 960 µM / activity at 1890 µM: read-out: Relative activity (%).

The target of series [2] is T1, D-sorbitol dehydrogenase (SLDH). Kind of series: Substrate specificity of the purified D-sorbitol dehydrogenase (DCIP reduction enzyme assay). The series is classed as biochemical, Gluconobacter suboxydans IFO 3255. The arrangement: The SLDH was isolated from the membrane fraction of Gluconobacter suboxydans IFO 3255 (DSM 9715); made in house; host or cells: Gluconobacter suboxydans IFO 3255 (DSM 9715), native source (not recombinant): purified from the solubilized membrane fraction. To be noted: for activity at 100000 µM: read-out: Relative activity.

Series [3] deals with membrane-bound D-sorbitol dehydrogenase. The conditions noted are these: Shinagawa et al. enzyme; cited from earlier work.
Series [4] has as its target T1, D-sorbitol dehydrogenase (SLDH). To be noted: conversion of D-sorbitol to L-sorbose.
Substrate in series [5]: OC[C@@H](O)[C@@H](O)[C@H](O)[C@@H](O)CO
In words: Effects of substrate concentration on reaction rate (Km). The class given is biochemical, Gluconobacter suboxydans IFO 3255. To be noted: other: D-sorbitol 0.5 to 80 mM; DCIP as electron acceptor. On the procedure:
The velocity of the oxidizing reaction on varying the concentration of D-sorbitol from 0.5 to 80 mM was measured to determine the Km value for D-sorbitol. The apparent Michaelis constant was calculated to be 18 mM with DCIP as an electron acceptor for the reaction.

Setting [6] is: metal 0.91 mM, percentage of the reaction rate without metal compounds.
Setting [7] is: metal 1.79 mM, percentage of the reaction rate without metal compounds.
Setting [8] is: substrate solutions 100 mM, percent of the reaction rate obtained with D-sorbitol.
[9] abbreviates: inhibitor 0.96 mM, percentage of the reaction rate without inhibitors.
Where [10] appears, read: inhibitor 1.89 mM, percentage of the reaction rate without inhibitors.

By Km is commonly meant the substrate concentration at which the rate is half of its maximum.

Where a name gives a salt, the structure may show the parent alone. Read-outs that look alike come from different tables or passages of the source.

As for `O.O.O.O.O=[N+]([O-])[O-].O=[N+]([O-])[O-].[Ca+2]` [Ca(NO3)2.4H2 O], the “Relative activity (%)” value in series [1] (setting [6]) and in series [1] (setting [7]) was 96% each time. `[Ca+2].[Cl-].[Cl-]` [CaCl2]: the “Relative activity (%)” value in series [1] (setting [6]) and in series [1] (setting [7]) was 96% in each case.

Take `O.O.O.O.O.O.[Cl-].[Cl-].[Co+2]` [CoCl2.6H2 O]: the “Relative activity (%)” value was found to be 117% in series [1] (setting [6]) and 108% in series [1] (setting [7]).

On to `O.O.O.O=[N+]([O-])[O-].O=[N+]([O-])[O-].[Cu+2]` [Cu(NO3)2.3H2 O], for which the “Relative activity (%)” value in series [1] (setting [6]) and in series [1] (setting [7]) was 0% in each case.

As to `O.O.[Cl][Cu][Cl]` [CuCl2.2H2 O], the “Relative activity (%)” value in series [1] (setting [6]) and in series [1] (setting [7]) was 0% throughout. On to `O=S(=O)([O-])[O-].[Cu+2]` [CuSO4], for which the “Relative activity (%)” value in series [1] (setting [6]) and in series [1] (setting [7]) was 0% throughout. As for `[Cu+2]` [Cu^2+], the “effect on SLDH activity” value in series [1] was “strongly inhibitory”. On to `OC[C@@H](O)[C@@H](O)[C@@H](O)CO` [D-Adonitol], for which the activity at 100000 µM in series [2] (setting [8]) was determined as 66.6%.

As for `OC[C@@H](O)C(O)[C@H](O)CO` [D-Arabitol], the “oxidation by SLDH” value in series [2] (substrate solutions 100 mM) is on record as “highly oxidized”. In series [2] (setting [8]), the activity at 100000 µM turned out to be 175%. Also, in series [3], the “oxidation by the enzyme” value is given as “did not oxidize”.

As for `O=C(CO)[C@@H](O)[C@H](O)[C@H](O)CO` [D-Fructose], in series [2] (setting [8]), the activity at 100000 µM was found to be 0%. As to `OC[C@H]1OC(O)[C@H](O)[C@@H](O)[C@@H]1O` (stereo partly drawn) [D-Glucose], the activity at 100000 µM in series [2] is 0%. On to `OC[C@@H](O)[C@@H](O)[C@H](O)[C@H](O)CO` [D-Mannitol], for which the activity at 100000 µM in series [2] was 49.9%. In addition, the “reaction rate relative to D-sorbitol” value in series [3] was 5%.

As to `OC[C@@H](O)[C@@H](O)[C@H](O)[C@@H](O)CO` [D-Sorbitol], the activity at 100000 µM in series [2] was found to be 100%. Further, the “oxidation by SLDH” value in series [2] (substrate solutions 100 mM) is given as “highly oxidized”. On to `OC[C@@H](O)[C@H](O)[C@@H](O)CO` [D-Xylitol], for which, in series [2] (setting [8]), the activity at 100000 µM was determined as 0%. On to `O=C(O)CN(CCN(CC(=O)O)CC(=O)O)CC(=O)O` [EDTA], for which, in series [1], the activity at 960 µM was 96.7% and the activity at 1890 µM was found to be 100%. As to `CCO` [Ethanol], the activity at 100000 µM in series [2] came out at 0%. Consider `O=S(=O)([O-])[O-].O=S(=O)([O-])[O-].O=S(=O)([O-])[O-].[Fe+3].[Fe+3]` [Fe2 (SO4)3.xH2 O], for which the “Relative activity (%)” value in series [1] (setting [6]) and in series [1] (setting [7]) was 0% in each case. For the molecule `[Fe+3]` [Fe^3+], the “effect on SLDH activity” value in series [1] is recorded as “strongly inhibitory”. Consider `OCC(O)CO` [Glycerol], for which the “oxidation by SLDH” value in series [2] (substrate solutions 100 mM) was “highly oxidized”. The activity at 100000 µM in series [2] (setting [8]) turned out to be 117%. For the molecule `O=C(CO)[C@@H](O)[C@H](O)[C@@H](O)CO` [L-Sorbose], in series [2] (setting [8]), the activity at 100000 µM worked out at 0%. `CO` [Methanol]: the activity at 100000 µM in series [2] worked out at 0%. For `O.O.O.O.O.O.[Cl-].[Cl-].[Mg+2]` [MgCl2.6H2 O], the “Relative activity (%)” value in series [1] (setting [6]) was 88%; in series [1] (setting [7]), 92%.

With `O.O.O.O.[Cl][Mn][Cl]` [MnCl2.4H2 O], the “Relative activity (%)” value in series [1] (setting [6]) worked out at 80%; in series [1] (setting [7]), 88%. Turning to `O=C(O)CI` [Monoiodoacetate], in series [1], the “inhibitory by” value came out at 75%, the activity at 960 µM is 75% and the activity at 1890 µM stood at 25%. For `CCN1C(=O)C=CC1=O` [N-Ethylmaleimide], the activity at 960 µM in series [1] (setting [9]) stood at 117%. Moreover, the activity at 1890 µM in series [1] was found to be 100%.

As to `O.O.O.O.O.O.O.O=[As]([O-])([O-])O.[Na+].[Na+]` [Na2 HAsO4.7H2 O], the entries for the “Relative activity (%)” value in series [1] (setting [9]) and in series [1] (setting [10]) were 116.7% and 120.0%, respectively. Consider `O.O.[Na+].[Na+].[O]=[Mo](=[O])([O-])[O-]` [Na2 MoO4.2H2 O], for which the “Relative activity (%)” value in series [1] (setting [6]) was 68%; in series [1] (setting [7]), 96%. For the molecule `[N-]=[N+]=[N-].[Na+]` [NaN3], the “Relative activity (%)” value in series [1] (setting [9]) was determined as 91.7%; in series [1] (setting [10]), 112.5%.

For the molecule `O.O.O.O.O.O.O=S(=O)([O-])[O-].[Ni+2]` [NiSO4.6H2 O], the “Relative activity (%)” value in series [1] (setting [6]) was 88%; in series [1] (setting [7]) it was 108%. Turning to `C=C[C@H]1CN2CC[C@H]1C[C@H]2[C@H](O)c1ccnc2ccc(OC)cc12` [Quinine-HCl, quinine hydrochloride], the activity at 960 µM in series [1] (setting [9]) came to 79.2%. Moreover, the activity at 1890 µM in series [1] (setting [10]) was 75%. Moreover, the “inhibitory by” value in series [1] (inhibitors (Table 7)) was 25%. On to `[F-].[Na+]` [Sodium fluoride], for which the “Relative activity (%)” value in series [1] (setting [9]) and in series [1] (setting [10]) was 100% in each case. On to `O=C(O)CF` [Sodium fluoroacetate], for which, in series [1], the activity at 960 µM worked out at 104% and the activity at 1890 µM came to 108%. As for `OC[C@H]1O[C@@](CO)(O[C@H]2O[C@H](CO)[C@@H](O)[C@H](O)[C@H]2O)[C@@H](O)[C@@H]1O` [Sucrose], in series [2] (setting [8]), the activity at 100000 µM worked out at 0%.

For the molecule `[Cl][Ti]([Cl])([Cl])[Cl]` [TiCl4], the “Relative activity (%)” value in series [1] (setting [6]) worked out at 96%; in series [1] (setting [7]) it was 88%. On to `[Cl-].[Cl-].[Zn+2]` [ZnCl2], for which the “Relative activity (%)” value was determined as 56% in series [1] (setting [6]) and 32% in series [1] (setting [7]). Taken in the same sequence, the figures for `O.O.O.O.O.O.O.O=S(=O)([O-])[O-].[Zn+2]` [ZnSO4.7H2 O] were 44% and 40%.

On to `OC[C@@H](O)[C@@H](O)CO` [meso-Erythritol], for which, in series [2] (substrate solutions 100 mM), the “oxidation by SLDH” value is reported as “highly oxidized”. In addition, in series [2] (setting [8]), the activity at 100000 µM is 172%. For the same molecule, the “oxidation by the enzyme” value in series [3] is listed as “did not oxidize”. On to `O=O` [oxygen], for which the “use as electron acceptor” value in series [4] was “does not utilize oxygen as an electron acceptor”. Regarding MnSO4.4~6H2 O, the “Relative activity (%)” value in series [1] (setting [6]) and in series [1] (setting [7]) was 88% in each case.

B1: D-sorbitol dehydrogenase (SLDH) (Gluconobacter thailandicus) (protein)
chain: T1 sequence (Q8KIL1 30-740)
notes: The SLDH was isolated from the membrane fraction of Gluconobacter suboxydans IFO 3255 (DSM 9715); made in house; host or cells: Gluconobacter suboxydans IFO 3255 (DSM 9715), native source (not recombinant): purified from the solubilized membrane fraction
For the molecule B1, the Km in series [5] was determined as 18 mM.

(Values after US5747301A, “D-sorbitol dehydrogenase” (Roche Vitamins Inc., priority 1995, dated 1998).)
